Reference: patent US20180255816A1, “SWEETENERS HAVING ENHANCED ORGANOLEPTIC PROPERTIES” (CORNELL UNIVERSITY, priority 2015, published 2018)

Key:
[1] = compared with dulcoside A; cited from earlier work
β-lactoglobulin = molecular target: T1, β-lactoglobulin (Bos taurus, UniProt P02754); test: STD NMR binding with β-lactoglobulin; conditions: 1 mM rebaudioside A, 20 μM β-lactoglobulin, 40° C., pH 3
T1 sequence (P02754 17-178): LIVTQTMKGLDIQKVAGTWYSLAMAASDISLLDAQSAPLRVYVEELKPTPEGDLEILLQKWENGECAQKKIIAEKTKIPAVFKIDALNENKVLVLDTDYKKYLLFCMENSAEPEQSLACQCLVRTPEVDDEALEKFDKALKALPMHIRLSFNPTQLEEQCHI
Text: (§1) A first step is to assess binding of the protein to ligand under investigation. Saturation transfer difference (STD) NMR spectroscopy was utilized to screen ligands for binding to proteins. The method is based on the transfer of saturation from the protein to the bound ligands, which exchange into solution where they are detected as a reduction in the intensity of the free ligand signal. By subtracting the spectrum in which the protein is saturated from a spectrum without protein saturation produces a spectrum showing only the difference in which only the signals of the ligand(s) remain. This method was used to identify binding epitopes, because the ligand residues in direct contact with the protein show faster build-up of STD signals. This method involves a several-fold excess of ligand concentration over protein, allowing low […] protein concentrations to be used.
FIG. 8A is the solvent suppressed (WET) ^1H NMR spectrum of a sample containing 1 mM rebaudioside A and 20 μM β-lactoglobulin at 40° C. and pH 3. FIG. 8B is the STD spectrum of the same sample. Separate FIDs were stored with on-resonance saturation at 7.19 ppm and off-resonance saturation at −15 ppm.

[2] = molecular target: bovine serum albumin (BSA) (Bos taurus, UniProt P02769); test: Saturation transfer difference (STD) NMR binding screen with BSA
Chain of bovine serum albumin (BSA) (P02769 25-607): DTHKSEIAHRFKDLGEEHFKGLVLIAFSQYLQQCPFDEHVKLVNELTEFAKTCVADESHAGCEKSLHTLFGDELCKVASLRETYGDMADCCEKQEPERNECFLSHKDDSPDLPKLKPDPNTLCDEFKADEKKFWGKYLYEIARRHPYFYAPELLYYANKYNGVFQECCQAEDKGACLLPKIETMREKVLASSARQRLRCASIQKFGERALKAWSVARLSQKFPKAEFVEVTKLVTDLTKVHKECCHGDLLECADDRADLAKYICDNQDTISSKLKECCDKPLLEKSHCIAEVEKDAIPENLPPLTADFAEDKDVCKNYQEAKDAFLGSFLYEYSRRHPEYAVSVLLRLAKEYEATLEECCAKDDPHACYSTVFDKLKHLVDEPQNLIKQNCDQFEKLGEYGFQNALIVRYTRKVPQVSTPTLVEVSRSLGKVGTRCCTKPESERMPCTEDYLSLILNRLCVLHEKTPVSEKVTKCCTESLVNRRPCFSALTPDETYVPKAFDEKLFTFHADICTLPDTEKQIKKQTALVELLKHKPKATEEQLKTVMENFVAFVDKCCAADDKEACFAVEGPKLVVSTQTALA
Text: as §1, with “used. […]” for “used.”
FIG. 2A is the pre-saturated 600 MHz ^1H NMR spectrum of a 2 mM rebaudioside A and 50 μM BSA in filtered orange juice with 10% D2O at 25° C. A STD spectrum (FIG. 2B) of 2 mM rebaudioside A and 50 μM BSA in filtered orange juice with on- and off-resonance saturation at 8.56 and 31 ppm, respectively was recorded to validate the stability of rebaudioside A—BSA complex in a natural and complex food matrix. […]

panelists = test: Paired comparison taste test of organoleptic properties by 5 panelists; type: in vivo; conditions: taste panel, solution in 50 mL
Text: The following compositions were formulated and tested for their organoleptic properties through a paired comparison test by 5 panelists.

Row | Molecule | bitterness relative to dulcoside A [1] | sweetness relative to dulcoside A [1] | binding to β-lactoglobulin by STD spectrum (β-lactoglobulin) | binding to BSA by STD spectrum ([2]; 1 mM rebaudioside A, 20 μM BSA, D2O, pH 3.0, 40° C., saturation at 7.19 ppm) | binding to BSA by STD spectrum in food matrix ([2]; 2 mM rebaudioside A, 50 μM BSA, filtered orange juice with 10% D2O, 25° C.) | Quality: bitter after taste (panelists) | Quality: onset of sweetness (panelists)
1 | C=C1C[C@@]23CC[C@H]4[C@@](C)(CCC[C@@]4(C)C(=O)O[C@@H]4O[C@H](CO)[C@@H](O)[C@H](O)[C@H]4O[C@@H]4O[C@H](CO)[C@@H](O)[C@H](O)[C@H]4O)[C@@H]2CC[C@]1(O[C@@H]1O[C@H](CO)[C@@H](O)[C@H](O[C@@H]2O[C@H](CO)[C@@H](O)[C@H](O)[C@H]2O)[C@H]1O[C@@H]1O[C@H](CO)[C@@H](O)[C@H](O)[C@H]1O)C3 [rebaudioside D] | two-thirds less bitter | around five times sweeter | – | – | – | – | –
2 | rebaudioside A | – | – | capable of binding to β-lactoglobulin | binds to BSA | specific binding between Rebaudioside A and BSA occurs | sweetness and bitter after taste | Slow onset of sweetness
